Each block holds one molecule with its values, some of them ahead of it.
How the values were obtained:
Type in all cases: physicochemical
[1] = Solubility in aqueous media
physchem = experiment: physchem
Description: This hydrated form of the trihydrochloride salt of the compound N-[trans-4-[4-(cyclopropylmethyl)-1-piperazinyl]cyclohexyl]-4-[[(7R)-7-ethyl-5,6,7,8-tetrahydro-5-methyl-8-(1-methylethyl)-6-oxo-2-pteridinyl]amino]-3-methoxy-benzamide of formula (I) is highly soluble (>10 mg/ml) in propylenglycol, glycofurol, Cremophor RH40 (30% aqueous solution), Poloxamer 188 (20% aqueous solution), Solutol HS 15 (20% aqueous solution) as well as HP-β-cyclodextrin (20%-, 10%-, 5%-aqueous solutions). • Solid state properties of an hydrated form of the trihydrochloride salt of N-[trans-4-[4-(cyclopropylmethyl)-1-piperazinyl]cyclohexyl]-4-[[(7R)-7-ethyl-5,6,7,8-tetrahydro-5-methyl-8-(1-methylethyl)-6-oxo-2-pteridinyl]amino]-3-methoxy-benzamide. • Appearance

[2] = Solid state stability under harsh stress conditions
Description: No significant decomposition or impurities (Σ<2.4%) can be observed under the applied stress conditions.

[3] = Stability of hydrate / anhydrous form (humidity, ambient conditions, heating)
Description: Under standard conditions the crystalline trihydrochloride salt form of N-[trans-4-[4-(cyclopropylmethyl)-1-piperazinyl]cyclohexyl]-4-[[(7R)-7-ethyl-5,6,7,8-tetrahydro-5-methyl-8-(1-methylethyl)-6-oxo-2-pteridinyl]amino]-3-methoxy-benzamide according to the invention is present in the form of an hydrate and is obtainable after drying with a changing stoichiometry (1-3 water equivalents). The hydrate with a stoichiometry close to a trihydrate seems to be the stable hydrated form under ambient conditions and can be obtained after conditioning of the dried material. The crystal water is tightly bound.
At about 260° C. another strong endothermic peak can be observed in the DSC-diagram, indicating melting of the dehydrated form. The onset of this melting event is at about 245° C. Melting occurs, however, under decomposition, indicated by the accompanied weight loss upon melting. When performing a TG-IR coupling experiment, it can be shown that hydrochloric acid is released upon decomposition. The respective anhydrous form, obtained by heating a sample up to 140° C. is not stable.

solubility ([1]; pH 2.2, aqueous buffer): > 10000 µg/mL | solubility ([1]; pH 3, aqueous buffer): 6200 µg/mL | solubility ([1]; pH 4, aqueous buffer): 7200 µg/mL | solubility ([1]; pH 5, aqueous buffer): 7200 µg/mL | solubility ([1]; pH 6, aqueous buffer): 7100 µg/mL | solubility ([1]; pH 7.4, aqueous buffer): 7800 µg/mL | solubility ([1]; simulated gastric fluid): > 10000 µg/mL | solubility ([1]; water): > 10000 µg/mL | solubility (physchem): > 10000 µg/mL | solubility (physchem; aqueous with cosolvent or surfactant or cyclodextrin): > 10000 µg/mL | solubility (physchem; organic solvent or mixture): > 10000 µg/mL | decomposition or impurities (Σ) ([2]; 24 hours at 105° C., 72 hours at 70° C. and >90% rel. humid., or 24 hours in a Xenotester (λ=300-800 nm, 250 W·m^−2)): < 2.4% | stability in the solid state ([2]; harsh stress conditions (105° C. 24 h; 70° C./>90% rel. humid. 72 h; Xenotester 24 h)): very stable in the solid state
SMILES: CC[C@@H]1C(=O)N(C)c2cnc(Nc3ccc(C(=O)N[C@H]4CC[C@H](N5CCN(CC6CC6)CC5)CC4)cc3OC)nc2N1C(C)C.Cl [N-[trans-4-[4-(cyclopropylmethyl)-1-piperazinyl]cyclohexyl]-4-[[(7R)-7-ethyl-5,6,7,8-tetrahydro-5-methyl-8-(1-methylethyl)-6-oxo-2-pteridinyl]amino]-3-methoxy-benzamide]
solubility in physiologically acceptable solvents [1]: readily soluble in physiologically acceptable solvents | pH dependent solubility profile in aqueous media ([1]; conclusion from Table I): high solubility in acidic and neutral media and strongly reduced solubility in basic media | stability under ambient conditions compared to the anhydrous form ([3]; ambient conditions): advantage of stability under ambient conditions | weight loss on lowering the humidity ([3]; humidity down to 10% r.h.): does not result in a significant weight loss

stability of the anhydrous form ([3]; obtained by heating a sample up to 140° C.): not stable
SMILES: CC[C@@H]1C(=O)N(C)c2cnc(Nc3ccc(C(=O)N[C@H]4CC[C@H](N5CCN(CC6CC6)CC5)CC4)cc3OC)nc2N1C(C)C.Cl [anhydrous form, N-[trans-4-[4-(cyclopropylmethyl)-1-piperazinyl]cyclohexyl]-4-[[(7R)-7-ethyl-5,6,7,8-tetrahydro-5-methyl-8-(1-methylethyl)-6-oxo-2-pteridinyl]amino]-3-methoxy-benzamide]

solubility in water compared to the free base [1]: much more soluble than the free base
SMILES: CC[C@@H]1C(=O)N(C)c2cnc(Nc3ccc(C(=O)N[C@H]4CC[C@H](N5CCN(CC6CC6)CC5)CC4)cc3OC)nc2N1C(C)C.Cl [trihydrochloride salt, N-[trans-4-[4-(cyclopropylmethyl)-1-piperazinyl]cyclohexyl]-4-[[(7R)-7-ethyl-5,6,7,8-tetrahydro-5-methyl-8-(1-methylethyl)-6-oxo-2-pteridinyl]amino]-3-methoxy-benzamide]

From patent publication US8188086B2, “Specific salt, anhydrous and crystalline form of a dihydropteridione derivative” (Boehringer Ingelheim International GmbH, priority 2006, dated 2012)
